Like-named read-outs stand apart in the source and are kept apart here.

This is an account of results in patent US7501453B2, “Cyclopropanes with central nervous system activity” (The Research Foundation of State University of New York, priority 2006, dated 2009).

In one assay the target is T1, hSERT (Homo sapiens, UniProt P31645).
T1 construct: expressed in transfected cells; host or cells: HEK293
Description: Inhibition of [125I]RTI-55 binding to hSERT in HEK293 cell membranes. As to the method: (§1) Unknowns are weighed and dissolved in DMSO to make a 10 mM stock solution. An initial dilution to 50 μM in assay buffer for binding, or to 1 mM in water for uptake, is made. Subsequent dilutions are made with assay buffer supplemented with DMSO, maintaining a final concentration of 0.1% DMSO. Pipetting is conducted using a Biomek 2000 robotic workstation.
(§2) Inhibition of Radioligand Binding of [125I]RTI-55 to hDAT, hSERT or hNET in Colonla Cells
(§3) Cell preparation: HEK293 cells expressing hDAT, hSERT or hNET inserts are grown to 80% confluence on 150 mm diameter tissue culture dishes and serve as the tissue source. Cell membranes are prepared as follows. Medium is poured off the plate, and the plate is washed with 10 ml of calcium- and magnesium-free phospate-buffered saline. Lysis buffer (10 ml; 2 mM HEPES with 1 mm EDTA) is added. After 10 min, cells are scraped from plates, poured into centrifuge tubes, and centrifuged […] for 20 min. The supernatant fluid is removed, and the pellet is resuspended in 12-32 ml of 0.32 m sucrose using a Ploytron at setting 7 for 10 sec. The resuspension volume depends on the density of binding sites within a cell line and is chosen to reflect binding of 10% or less to the total radioactivity.
(§4) Assay conditions: Each assay tube contains 50 μl of membrane preparation (about 10-15 μg of protein), 25 μl of unknown compound used to define non-specific binding, or buffer(Krebs-HEPES, pH 7.4;122 mM NaCl, 2.5 mM CaCl2, 1.2 mM MgSO4, 10 μM pargyline, 100 μM tropolone,0.2% glucose and 0.2% ascorbic acid, buffered with 25 mM HEPES) […] of [125I]RTI-55 (40-80 pM final concentration) and additional buffer sufficient to bring up the final volume to 250 μl. Membranes are preincubated with unknowns for 10 min prior to the addition of [125I]RTI-55. The assay tubes are incubated to 25° C. for 90 min. Binding is terminated by filtration over GF/F filters using Tomtec 96-well cell harvester. Fliter are washed for six seconds with ice cold saline. Scintillation fluid is added to each square and radioactivity remaining on the filter is determined using Wallac μ- or beta plate reader. Specific binding is defined as the difference in binding observed in the presence and absence of 5 μM mazindol (HEK-hDAT and HEK-hNET) or […] imipramine (HEK-hSERT). Two or three independent competition experiments are conducted with duplicate determinations. GraphPAD Prism is used to analyze the ensuing data, with IC50 values converted to Ki values using the Cheng-Prusoff equation (Ki=IC50/(1+([125I]RTI-55/KdRTI55))).

In a further assay the target is T2, hNET (Homo sapiens, UniProt P23975).
T2 construct: expressed in transfected cells; host or cells: HEK293
T2 sequence (P23975 whole entry): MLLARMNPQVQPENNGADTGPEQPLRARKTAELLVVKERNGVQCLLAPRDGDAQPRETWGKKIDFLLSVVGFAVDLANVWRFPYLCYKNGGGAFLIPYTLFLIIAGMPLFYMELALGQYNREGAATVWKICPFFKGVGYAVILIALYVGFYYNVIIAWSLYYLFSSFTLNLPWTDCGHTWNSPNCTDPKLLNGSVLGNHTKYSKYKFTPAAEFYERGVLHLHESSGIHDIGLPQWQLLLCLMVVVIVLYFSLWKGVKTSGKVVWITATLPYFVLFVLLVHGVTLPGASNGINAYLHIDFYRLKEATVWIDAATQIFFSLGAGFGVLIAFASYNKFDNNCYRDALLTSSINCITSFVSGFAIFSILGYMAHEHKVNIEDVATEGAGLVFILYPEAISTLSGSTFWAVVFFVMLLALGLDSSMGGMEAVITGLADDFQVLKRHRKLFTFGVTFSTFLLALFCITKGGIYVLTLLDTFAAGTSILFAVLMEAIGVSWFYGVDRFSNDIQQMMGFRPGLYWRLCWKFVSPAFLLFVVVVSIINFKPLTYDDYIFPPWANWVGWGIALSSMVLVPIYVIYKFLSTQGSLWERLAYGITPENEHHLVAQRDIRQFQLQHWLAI
The assay can be described thus: Inhibition of [125I]RTI-55 binding to hNET in HEK293 cell membranes. To be noted: [125I]RTI-55 displacement, HEK-hNET membranes; IC50 converted to Ki (Cheng-Prusoff); read-out: Transporter NET. The protocol: as §1, §2, §3, §4

For another assay, the target named is T3, hDAT (Homo sapiens, UniProt Q01959).
T3 construct: expressed in transfected cells; host or cells: HEK293
T3 sequence (Q01959 whole entry): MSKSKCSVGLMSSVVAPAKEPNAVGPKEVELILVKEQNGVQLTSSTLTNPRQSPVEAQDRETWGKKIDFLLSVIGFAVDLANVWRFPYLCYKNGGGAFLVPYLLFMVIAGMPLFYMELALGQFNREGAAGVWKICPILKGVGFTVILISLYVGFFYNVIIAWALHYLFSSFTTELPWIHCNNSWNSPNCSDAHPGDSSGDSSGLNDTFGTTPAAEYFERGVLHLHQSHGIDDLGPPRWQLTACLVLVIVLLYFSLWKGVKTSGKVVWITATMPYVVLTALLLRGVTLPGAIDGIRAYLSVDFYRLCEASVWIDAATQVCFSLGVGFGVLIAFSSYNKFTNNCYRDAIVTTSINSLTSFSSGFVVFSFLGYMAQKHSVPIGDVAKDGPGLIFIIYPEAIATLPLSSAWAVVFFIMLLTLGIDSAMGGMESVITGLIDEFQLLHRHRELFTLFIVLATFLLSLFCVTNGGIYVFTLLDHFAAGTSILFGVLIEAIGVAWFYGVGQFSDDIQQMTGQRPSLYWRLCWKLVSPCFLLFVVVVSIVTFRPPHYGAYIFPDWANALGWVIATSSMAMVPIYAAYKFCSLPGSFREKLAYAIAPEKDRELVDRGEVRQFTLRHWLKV
The assay can be described thus: Inhibition of [125I]RTI-55 binding to hDAT in HEK293 cell membranes. The conditions noted are these: [125I]RTI-55 displacement, HEK-hDAT membranes; IC50 converted to Ki (Cheng-Prusoff); read-out: Transporter DAT. As to the method: as §1, §2, §3, §4

The mark [1] stands for this setting: [125I]RTI-55 displacement, HEK-hSERT membranes, IC50 converted to Ki (Cheng-Prusoff), read-out: Transporter SERT.

T1 sequence (P31645 whole entry): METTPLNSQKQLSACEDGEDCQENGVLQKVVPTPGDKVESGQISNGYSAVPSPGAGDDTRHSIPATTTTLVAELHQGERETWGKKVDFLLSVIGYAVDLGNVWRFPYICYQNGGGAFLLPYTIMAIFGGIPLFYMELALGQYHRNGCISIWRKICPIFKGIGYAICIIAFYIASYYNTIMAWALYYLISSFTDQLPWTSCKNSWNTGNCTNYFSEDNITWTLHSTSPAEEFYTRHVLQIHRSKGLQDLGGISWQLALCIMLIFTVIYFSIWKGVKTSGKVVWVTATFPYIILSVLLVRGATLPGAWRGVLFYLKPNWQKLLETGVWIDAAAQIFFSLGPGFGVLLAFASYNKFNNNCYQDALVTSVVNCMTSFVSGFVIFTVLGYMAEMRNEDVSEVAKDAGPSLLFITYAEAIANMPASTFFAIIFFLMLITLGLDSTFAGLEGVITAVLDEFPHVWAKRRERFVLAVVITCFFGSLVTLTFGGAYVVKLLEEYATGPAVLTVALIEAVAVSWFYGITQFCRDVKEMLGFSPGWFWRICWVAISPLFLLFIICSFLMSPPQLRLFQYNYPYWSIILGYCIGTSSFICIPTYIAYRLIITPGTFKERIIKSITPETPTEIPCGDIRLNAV

Regarding `CNC[C@@]1(c2ccc(Cl)c(Cl)c2)C[C@@H]1c1ccc(Cl)c(Cl)c1` [compound 32695], the Ki on hSERT (setting [1]) stood at 172 nM; at hNET, 2900 nM; at hDAT, 730 nM.
For `CNC[C@]1(c2ccccc2)C[C@H]1c1ccccc1` [compound 32696], the Ki is greater than 7300 nM at hSERT (setting [1]), 4300 nM at hNET and 4650 nM on hDAT.
The like results for `CNC[C@]1(c2ccc(Cl)c(Cl)c2)C[C@H]1c1ccccc1` [32,222] were, in that order, 4600 nM, greater than 10000 nM and 6600 nM.
As for `CNC[C@@]1(c2ccccc2)C[C@@H]1c1ccc(Cl)c(Cl)c1` [32,219], the Ki on hSERT (setting [1]) was 114 nM; at hNET, 1870 nM; at hDAT, 218 nM.
The like results for `CNC[C@@]1(c2ccc(Cl)c(Cl)c2)C[C@@H]1c1ccccc1` [32,221] were, in that order, 1040 nM, 3130 nM and 1380 nM.
For the compound `CNC[C@]1(c2ccccc2)C[C@H]1c1ccc2ccccc2c1` [compound 32698], the Ki is 14 nM at hSERT, 1270 nM on hNET and 1600 nM on hDAT.
On the same counts, the results for `CNC[C@]1(c2ccccc2)C[C@H]1c1ccc(Cl)c(Cl)c1` [32,220] are 45 nM, 1460 nM and 1450 nM.
As for `CNC[C@]1(c2ccc(Cl)c(Cl)c2)C[C@H]1c1ccc(Cl)c(Cl)c1` [compound 32694], the Ki at hSERT (setting [1]) came out at 1530 nM; on hNET, 3700 nM; at hDAT it was 1260 nM.
The like results for `CNC[C@@]1(c2ccccc2)C[C@@H]1c1ccccc1` [compound 32697] were, in that order, greater than 10000 nM, 3900 nM and greater than 5300 nM.
